From ChEMBL document CHEMBL1133499, “Design, synthesis, and in vitro biological activity of indole-based factor Xa inhibitors” (Bioorg Med Chem Lett, 2000)

How the values were obtained:
Coagulation factor X = Coagulation factor X (Homo sapiens, UniProt P00742); assay: In vitro inhibition of human Coagulation factor X.
Prothrombin = Prothrombin (Homo sapiens, UniProt P00734); assay: In vitro inhibition of human Coagulation factor II.

Coagulation factor X, sequence (P00742 41-179 limits assumed): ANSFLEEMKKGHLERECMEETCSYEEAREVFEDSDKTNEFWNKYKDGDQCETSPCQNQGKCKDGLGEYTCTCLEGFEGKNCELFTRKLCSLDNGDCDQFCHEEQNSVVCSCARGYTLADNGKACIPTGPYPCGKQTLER
Coagulation factor X, sequence (P00742 235-488 limits assumed): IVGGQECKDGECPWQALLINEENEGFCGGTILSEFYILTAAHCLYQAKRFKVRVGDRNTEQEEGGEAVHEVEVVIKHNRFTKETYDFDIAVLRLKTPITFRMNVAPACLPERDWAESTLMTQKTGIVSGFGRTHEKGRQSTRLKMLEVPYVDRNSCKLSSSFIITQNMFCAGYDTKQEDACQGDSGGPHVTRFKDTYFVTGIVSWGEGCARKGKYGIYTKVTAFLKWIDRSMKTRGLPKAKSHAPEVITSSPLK

Row | Ki (Coagulation factor X) [nM] | Ki (Prothrombin) [nM] | Compound
1 | 4 | 90 | N=C(N)c1ccc2ccc(Cn3c4ccccc4c4ccc(OC5CCNCC5)cc43)cc2c1
2 | 0.9 | 170 | N=C(N)c1cccc(Oc2ccc3c4ccccc4n(Cc4ccc5ccc(C(=N)N)cc5c4)c3c2)c1
3 | 5 | 50 | CN(C)C(=O)COc1ccc2c3ccccc3n(Cc3ccc4ccc(C(=N)N)cc4c3)c2c1
4 |  | 210 | N=C(N)c1ccc(Oc2ccc3c4ccccc4n(Cc4ccc5ccc(C(=N)N)cc5c4)c3c2)cc1
5 | 4.6 | 520 | CC(=N)N1CCC(Oc2ccc3cc(C(=O)O)n(Cc4ccc5ccc(C(=N)N)cc5c4)c3c2)CC1
6 | 60 | 1990 | N=C(N)c1ccc(-n2c3ccccc3c3ccc(OCc4ccc5ccc(C(=N)N)cc5c4)cc32)cc1
7 | 1.6 | 40 | CC(=N)N1CCC(Oc2ccc3c4ccccc4n(Cc4ccc5ccc(C(=N)N)cc5c4)c3c2)CC1

Further lines, the compound ahead of its results:

Row | Compound | Ki (Coagulation factor X) [nM] | Ki (Prothrombin) [nM]
8 | N=C(N)c1cccc(CNc2ccc3ccn(-c4cccc(C(=N)N)c4)c3c2)c1 | 190 | 4000
9 | N=C(N)c1ccc(-n2ccc3ccc(NCc4ccc5ccc(C(=N)N)cc5c4)cc32)cc1 | 30 | 570
10 | N=C(N)c1ccc(-n2ccc3ccc(NCc4cccc(C(=N)N)c4)cc32)cc1 | 340 | 3780
11 | CC(=N)N1CCC(Oc2ccc3cc(C(=O)NC(CC(=O)O)C(=O)O)n(Cc4ccc5ccc(C(=N)N)cc5c4)c3c2)CC1 (configuration not stated) | 20 | 2350
12 | N=C(N)c1ccc(CNc2ccc3ccn(Cc4ccc(C(=N)N)cc4)c3c2)cc1 |  | 3530
13 | COC(=O)c1cc2ccc(OC3CCN(C(C)=N)CC3)cc2n1Cc1ccc2ccc(C(=N)N)cc2c1 | 0.2 | 180
14 | CC(=N)N1CCC(Oc2ccc3cc(C(=O)N(C)C)n(Cc4ccc5ccc(C(=N)N)cc5c4)c3c2)CC1 | 3.5 | 1050
15 | N=C(N)c1ccc(CNc2ccc3ccn(-c4ccc(C(=N)N)cc4)c3c2)cc1 | 840 | 4530
16 | N=C(N)c1ccc(-n2ccc3ccc(NC(=O)c4cccc(C(=N)N)c4)cc32)cc1 | 160 | 2320
17 | CCOC(=O)c1cc2ccc(OC3CCN(C(C)=N)CC3)cc2n1Cc1ccc2ccc(C(=N)N)cc2c1 | 0.6 | 360
